Each structure is given as a SMILES string.

Consider 22 molecules from US10214512B2, “Factor XIA inhibitors” (MERCK SHARP & DOHME CORP., priority 2015, dated 2019).

The target in assay [1] is purified Human plasma Kallikrein (Homo sapiens (Human), UniProt P03952). In words: Kallikrein Assay. Type of assay: biochemical. The following applies: purified Human plasma Kallikrein 0.5 nM; substrate Acetyl-K-P-R-AFC; 50 mM HEPES pH 7.4; Ki from IC50 by Cheng Prusoff. The procedure: (§1) The effectiveness of a compound of the present invention as an inhibitor of Kallikrein can be determined using a relevant purified serine protease, and an appropriate synthetic substrate. The rate of hydrolysis of the chromogenic or fluorogenic substrate by the relevant serine protease was measured both in the absence and presence of compounds of the present invention. Assays were conducted at rt or at 37° C. […] A decrease in the rate of fluorescence change in the presence of inhibitor is indicative of enzyme inhibition. Such methods are known to one skilled in the art. The results of this assay are expressed as the inhibitory constant, Ki.
Chain of purified Human plasma Kallikrein (P03952 391-638): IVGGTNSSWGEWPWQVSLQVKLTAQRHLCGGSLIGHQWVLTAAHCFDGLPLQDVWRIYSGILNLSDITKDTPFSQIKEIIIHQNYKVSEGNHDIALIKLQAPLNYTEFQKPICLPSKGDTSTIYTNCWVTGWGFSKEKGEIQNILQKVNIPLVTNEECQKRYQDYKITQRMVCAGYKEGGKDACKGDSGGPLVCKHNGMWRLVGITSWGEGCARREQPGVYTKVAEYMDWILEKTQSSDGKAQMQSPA
Chain of purified Human plasma Kallikrein (P03952 20-390 partner): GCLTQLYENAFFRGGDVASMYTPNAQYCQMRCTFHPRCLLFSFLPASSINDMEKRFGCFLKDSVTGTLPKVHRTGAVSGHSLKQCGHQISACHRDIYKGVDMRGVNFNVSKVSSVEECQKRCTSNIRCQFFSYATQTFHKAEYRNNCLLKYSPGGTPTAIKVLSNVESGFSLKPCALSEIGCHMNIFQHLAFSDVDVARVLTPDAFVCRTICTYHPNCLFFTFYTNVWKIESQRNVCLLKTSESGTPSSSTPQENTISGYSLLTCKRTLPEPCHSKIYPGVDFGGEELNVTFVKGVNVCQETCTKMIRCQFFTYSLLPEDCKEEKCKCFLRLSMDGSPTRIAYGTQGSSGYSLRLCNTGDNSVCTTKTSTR
Kallikrein determinations were made in 50 mM HEPES buffer at pH 7.4 containing 150 mM NaCl, 5 mM CaCl2, and 0.1% PEG 8000 (polyethylene glycol; Fisher Scientific). Determinations were made using purified Human plasma Kallikrein at a final concentration of 0.5 nM (Enzyme Research Laboratories) and the synthetic substrate, Acetyl-K-P-R-AFC (Sigma # C6608) at a concentration of […].
Times required to achieve equilibration between enzyme and inhibitor were determined in control experiments. […] IC50 was determined by inflection point from a four parameter logistic curve fit. Ki was calculated using the Cheng Prusoff equation, Ki=IC50/(1+([S]/Km)).

Assay [2] addresses purified human Factor XIa (Homo sapiens (Human), UniProt P03951). In words: Factor XIa Assay. The format is biochemical. The following applies: purified human Factor XIa 40 pM; substrate Z-Gly-Pro-Arg-AFC 100 μM; 50 mM HEPES pH 7.4; read-out: Human FXIa Ki. The method, then:
as §1, with “Coagulation Factor XIa” for “Kallikrein”
Factor XIa determinations were made in 50 mM HEPES buffer at pH 7.4 containing 150 mM NaCl, 5 mM CaCl2, and 0.1% PEG 8000 (polyethylene glycol; JT Baker or Fisher Scientific). Determinations were made using purified human Factor XIa at a final concentration of 40 pM (Sekisui Diagnostics) and he synthetic substrate, Z-Gly-Pro-Arg-AFC, TFA salt (Sigma #C0980) at a concentration of 100 μM.
Times required to achieve equilibration between enzyme and inhibitor were determined in control experiments. Initial velocities of product formation in the absence (Vo) or presence of inhibitor (Vi) were measured. Assuming competitive inhibition, and that unity is negligible compared Km/[S], [I]/e, and [I]/e (where [S], [I], and e respectively represent the total concentrations, of substrate, inhibitor and enzyme), the equilibrium constant (Ki) for dissociation of the inhibitor from the enzyme can be obtained from the dependence of Vo/Vi on [I] shown in the following equation.

Chain of purified human Factor XIa (P03951 388-625): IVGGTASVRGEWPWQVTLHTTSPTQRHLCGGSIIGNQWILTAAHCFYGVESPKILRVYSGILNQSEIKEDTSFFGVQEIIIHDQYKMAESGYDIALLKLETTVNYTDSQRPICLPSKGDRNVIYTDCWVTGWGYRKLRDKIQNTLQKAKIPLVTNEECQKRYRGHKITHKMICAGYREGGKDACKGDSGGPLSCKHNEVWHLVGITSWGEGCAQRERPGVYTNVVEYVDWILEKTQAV
Chain of purified human Factor XIa (P03951 19-387 partner): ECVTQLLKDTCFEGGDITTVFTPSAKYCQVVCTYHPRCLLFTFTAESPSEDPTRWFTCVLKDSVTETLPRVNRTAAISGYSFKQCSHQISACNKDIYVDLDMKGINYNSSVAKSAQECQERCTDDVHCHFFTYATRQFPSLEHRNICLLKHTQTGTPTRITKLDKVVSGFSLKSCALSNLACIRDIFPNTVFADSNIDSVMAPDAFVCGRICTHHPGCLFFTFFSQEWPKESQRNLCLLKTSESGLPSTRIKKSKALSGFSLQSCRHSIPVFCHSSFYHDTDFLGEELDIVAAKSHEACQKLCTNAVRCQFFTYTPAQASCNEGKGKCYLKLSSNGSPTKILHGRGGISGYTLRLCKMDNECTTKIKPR

For the molecule `C[C@H]1CCC[C@H](c2ccc(-c3cc(Cl)ccc3-n3cnnn3)c[n+]2[O-])c2cccc(c2)-c2cc(F)ccc2NC1=O` [Example 3-b, 5-(5-chloro-2-(1H-tetrazol-1-yl)phenyl)-2-((5S,9S)-2^5-fluoro-5-methyl-4-oxo-3-aza-1(1,3),2(1,2)-dibenzenacyclononaphane-9-yl)pyridine 1-oxide], the Ki in assay [1] stood at 10.6 nM; in assay [2] it was 0.57 nM. For the molecule `COC(=O)Nc1ccc2c(c1)NC(=O)CCCC[C@H](c1ccc(-c3cc(Cl)ccc3C#N)c[n+]1[O-])c1cccc-2c1` (single isomer, unassigned) [Example 31], the Ki stood at 2.68 nM in assay [1] and 0.8 nM in assay [2]. Turning to `COC(=O)Nc1ccc2c(c1)NC(=O)CCCCC(c1ccc(-c3c(F)ccc(Cl)c3F)c[n+]1[O-])c1cc[n+]([O-])c-2c1` (stereo not drawn) [Example 94, 9-(5-(3-Chloro-2,6-difluorophenyl)-1-oxidopyridin-2-yl)-2^4-((methoxycarbonyl)amino)-4-oxo-3-aza-1(2,4)-pyridin-1-iuma-2(1,2) -benzenacyclononaphane 1-oxide], the results for the inhibition constant (Ki) in assay [1] and in assay [2] were 11.3 nM and 5.1 nM, respectively. For `COC(=O)Nc1ccc2c(c1)NC(=O)CCCCC(c1ccc(-c3c(F)ccc(Cl)c3F)c[n+]1[O-])c1nc-2c(Cl)[nH]1` (single isomer, unassigned) [Example 110-a, (Z)-5-(3-Chloro-2,6-difluorophenyl)-2-(1^5-chloro-2^4-((Methoxycarbonyl)amino)-4-oxo-1^1H-3-aza-1(4,2)-imidazola-2(1,2) -benzenacyclononaphane-9-yl)pyridine 1-oxide], in that order: 0.21 nM and 0.52 nM. On to `CCc1[nH]c2nc1-c1ccc(NC(=O)OC)cc1NC(=O)CCCC[C@@H]2c1ccc(-c2cc(F)ccc2OC(F)(F)F)c[n+]1[O-]` (single isomer, unassigned) [Example 133], for which the inhibitory constant (Ki) was 5.08 nM in assay [1] and 0.46 nM in assay [2]. On to `CC(C)(C)OCCOC(=O)Nc1ccc2c(c1)NC(=O)CCCC[C@H](c1ccc(-c3c(F)ccc(Cl)c3F)c[n+]1[O-])c1cccc-2c1` [Example 45, (S)-2-(2^4-(((2-(tert-butoxy)ethoxy)carbonyl)amino)-4-oxo-3-aza-1(1,3),2(1,2)-dinenzenacyclononaphane-9-yl)-5-(3-chloro-2,6-difluorophenyl)pyridine 1-oxide], for which the values for the Ki in assay [1] and in assay [2] were 0.44 nM and 0.24 nM, respectively. Take `COC(=O)Nc1ccc2c(c1)NC(=O)CCCC[C@H](c1ccc(-c3cc(Cl)ccc3-n3cccn3)c[n+]1[O-])c1nc-2c(C)[nH]1` (single isomer, unassigned) [Example 139]: the Ki in assay [1] was 22.2 nM; in assay [2], 0.35 nM. For `COC(=O)Nc1ccc2c(c1)NC(=O)CCCCC(c1ccc(-c3cc(Cl)ccc3-n3cnnn3)c[n+]1[O-])c1cccc-2c1` (single isomer, unassigned) [Example 6-a, 5-(5-Chloro-2-(1H-tetrazol-1-yl)phenyl)-2-(2^4-((methoxycarbonyl)amino)-4-oxo-3-aza-1(1,3),2(1,2) -dibenzenacyclononaphane-9-yl)pyridine 1-oxide], in that order: 0.29 nM and 0.1 nM.

On to `COC(=O)Nc1ccc2c(c1)NC(=O)CCCCC(c1ccc(-c3c(F)cccc3OC(F)F)c[n+]1[O-])c1nc-2c(C2CC2)[nH]1` (single isomer, unassigned) [Example 113-a, (Z)-2-(1^5-cyclopropyl-2^4-((methoxycarbonyl)amino)-4-oxo-1^1H-3-aza-1(4,2)-imidazola-2(1,2)-benzenacyclononaphane-9-yl)-5-(2-(difluoromethoxy)-6-fluorophenyl)pyridine 1-oxide], for which the Ki in assay [1] turned out to be 1.87 nM; in assay [2], 0.21 nM. `COC(=O)Nc1ccc2c(c1)NC(=O)CCCC[C@H](c1ccc(-c3cc(Cl)ccc3-n3cc(Cl)nn3)c[n+]1[O-])c1cccc-2c1` (single isomer, unassigned) [Example 37]: the Ki in assay [1] turned out to be 0.36 nM; in assay [2], 0.13 nM.

Turning to `O=C1CCCCC(c2ccc(-c3cc(F)ccc3-n3cc(Cl)nn3)c[n+]2[O-])c2cccc(c2)-c2cc(F)ccc2N1` (single isomer, unassigned) [Example 90-a, 5-(2-(4-Chloro-1H-1,2,3-triazol-1-yl)-5-fluorophenyl)-2-(2^5-fluoro-4-oxo-3-aza-1(1,3),2(1,2)-dinenzenacyclononaphane-9-yl)pyridine 1-oxide], the Ki came to 121 nM in assay [1] and 3.2 nM in assay [2].

As for `O=C1CCCCC(c2ccc(-c3cc(Cl)ccc3-n3cc(C(F)F)nn3)c[n+]2[O-])c2nc(c[nH]2)-c2cc(F)ccc2N1` (single isomer, unassigned) [Example 105-a, (Z)-5-(5-Chloro-2-(4-(difluoromethyl)-1H-1,2,3-triazol-1-yl)phenyl)-2-(2^5-fluoro-4-oxo-1^1H-3-aza-1 (4,2)-imidazola-2(1,2)-benzenacyclononaphane-9-yl)pyridine 1-oxide], the Ki is 17.2 nM in assay [1] and 0.56 nM in assay [2]. Take `C[C@@H]1CCC[C@H](c2ccc(-c3ccccc3-n3cc(Cl)nn3)c[n+]2[O-])c2cccc(c2)-c2c(cnn2C(F)F)NC1=O` (single isomer, unassigned) [Example 172-a]: the figures for the Ki in assay [1] and in assay [2] were 376 nM and 1.37 nM, respectively.

With `COC(=O)Nc1ccc2c(c1)NC(=O)CC1CC1CC(c1ccc(-c3c(C(F)F)ccc(Cl)c3F)c[n+]1[O-])c1nc-2c(C)[nH]1` (racemic) [Example 157], the Ki in assay [1] came to 2.04 nM; in assay [2] it was 0.45 nM. `COC(=O)Nc1ccc2c(c1)NC(=O)C(C)CCCC(c1ccc(-c3c(F)ccc(Cl)c3F)c[n+]1[O-])c1nc-2c[nH]1` (single isomer, unassigned) [Example 114-c, (Z)-5-(3-chloro-2,6-difluorophenyl)-2-(2^4-((methoxycarbonyl)amino)-5-methyl-4-oxo-1^1H-3-aza-1(4,2)-imidazola-2(1,2) -benzenacyclononaphane-9-yl)pyridine 1-oxide] had a Ki in assay [1] of 0.78 nM. In turn, `COC(=O)Nc1ccc2c(c1)NC(=O)C(C)CCCC(c1ccc(-c3c(F)ccc(Cl)c3F)cn1)c1cc-2ccn1` (single isomer, unassigned) [Example 95-d, Methyl (9-(5-(3-chloro-2,6-difluorophenyl)pyridin-2-yl)-5-methyl-4-oxo-3-aza-1(4,2)-pyridina-2(1,2)-benzenacyclononaphane-2^4-yl)carbamate] had a Ki in assay [1] of 10.8 nM.

Turning to `COC(=O)Nc1ccc2c(c1)NC(=O)[C@H](C)CCC[C@H](c1ccc(-c3cc(Cl)ccc3OC(F)(F)F)c[n+]1[O-])c1cccc-2c1` (single isomer, unassigned) [Example 77-a], the affinity in assay [1], expressed as Ki, was 1.69 nM. Still for that read-out and setting: the figure for `COC(=O)Nc1ccc2c(c1)NC(=O)CCCC[C@H](c1ccc(-c3cc(Cl)ccc3-n3cc(C4CC4)nn3)c[n+]1[O-])c1cccc-2c1` (single isomer, unassigned) [Example 38] is 0.95 nM; for `COC(=O)Nc1ccc2c(c1)NC(=O)C(C)CCCC(c1ccc(-c3c(F)ccc(Cl)c3F)c[n+]1[O-])c1nc-2c[nH]1` (single isomer, unassigned) [Example 114-a, (Z)-5-(3-chloro-2,6-difluorophenyl)-2-(2^4-((methoxycarbonyl)amino)-5-methyl-4-oxo-1^1H-3-aza-1(4,2)-imidazola-2(1,2) -benzenacyclononaphane-9-yl)pyridine 1-oxide] it is 0.24 nM; for `COC(=O)Nc1ccc2c(c1)NC(=O)[C@H](C)CCC[C@H](c1ccc(-c3cc(F)ccc3OC(F)(F)F)c[n+]1[O-])c1nc-2c(C)[nH]1` (single isomer, unassigned) [Example 149-a] it is 2.02 nM.

In assay [1], `COC(=O)Nc1ccc2c(c1)NC(=O)CCCCC(c1ccc(-c3c(F)cccc3OC(F)(F)F)c[n+]1[O-])c1nc-2c(C)[nH]1` (single isomer, unassigned) [Example 131] displayed an inhibition constant Ki of 5.32 nM. `CCc1[nH]c2nc1-c1ccc(NC(=O)OC)cc1NC(=O)[C@H](C)CCC[C@@H]2c1ccc(-c2c(F)cccc2OC(F)F)c[n+]1[O-]` (single isomer, unassigned) [Example 146-a] displayed a Ki in assay [1] of 0.71 nM.

By Ki is commonly meant a dissociation constant, usually derived from enzyme kinetics or from competition with a known ligand.
